Earlier results as cited in patent publication US7611715B2, “Agaricus extract for preventing the induction or metastasis of cancer” (SSI Co., Ltd., priority 2002, dated 2009).

Settings: calculated

Q: For `CCOC(N)=O` [Urethane, ethyl carbamate], which safety dose (virtually safe dose, VSD) in human for liver cancer is on record?
A: 7.2e-05 mg/kg body weight
